Reference: patent US5175151A, “Antiviral compounds and antihypertensive compounds” (Schering Corporation, priority 1992, dated 1992)
In brackets after ≈: the same amount, converted by molar mass. Like-named read-outs stand apart in the source and are kept apart here.

Tests used:
[1] = target: T1, cGMP phosphodiesterase (cGMP-PDE) (Bos taurus, UniProt Q28156); assay: Phosphodiesterase inhibition in vitro (cGMP-PDE); type: biochemical; conditions: bovine lung enzyme, 1 μM ^3 H-cGMP, pH 7.5, 25 minutes, room temperature
T1 construct: is a homogeneous enzyme obtained from bovine lung and purified by ion-exchange chromatography, gel filtration, and sucrose gradient centrifugation; from tissue; host or cells: bovine lung

[2] = Compound toxicity assay: ^3 H-LEU HeLa cell translation (cytotoxicity); type: cell-based; conditions: human; HeLa cells, translational activity, overnight incubation at 37° C.; read-out: Cytotoxicity, ^3 H-LEU Assay IC50
Protocol: HeLa cells were treated with inhibitory compound for 24 hrs, after which levels of translational activity were assayed.
For assay of translational activity, HeLa cultures were grown to 80% confluency in 96 well microtiter plates, treated with appropriate concentrations of compound in 2% EMEM during an overnight incubation at 37° C., then rinsed with HBSS and overlaid with […] of 2% EMEM containing 8 uCi of tritiated leucine (^3 H-LEU, 141 Cu/mMol, Amersham Corp., Arlington Heights, Ill.). After a 1 hr incubation at 36.5° C., the cells were rinsed twice with phosphate buffered saline (PBS) and lysed in 400 ul/well of 1×PBS, 0.5% sodium dodecyl sulphate (SDS). After a 10 min incubation at 36.5° C., the contents of the well were transferred to a well in a Millititer HA microfiltration plate (Millipore Corp., Bedford, Mass.). The TCA insoluble proteins were precipitated onto the filter disc by a 10 min fixation with 5% TCA, followed by filtration over vacuum and three 10 minute rinses with 95% ethanol. The filters were dried at room temperature, cut from the milltitier plate and transferred to scintillation vials. TCA precipitable counts were assayed in 5 ml of Scintisol (Isolab, Akron, Ohio). The inhibitory activity of a compound was plotted versus the concentration and an IC50 value (that concentration of the compound required to decrease cellular translational activity by 50%) was derived for each compound.

HSV-2 (strain MS) = assay: HSV-β-Gal assay: transient expression of beta galactosidase in transfected HeLa cells superinfected with HSV-2 (in-vitro anti-HSV activity); type: cell-based
Protocol: HeLa and Vero cell cultures were maintained in Eagles Minimal Essential Medium which was supplemented with glutamine, penecillin, streptomycin and 10% fetal calf serum (10% EMEM). Stock cultures of HSV-2 (strain MS available from ATCC VR-540) were grown in and harvested from Vero cells. Viral stocks were titered in Vero cells according to established procedures.
Plasmid pON 245^ori- contains the promoter of the HSV-1 thymidine kinase (tk) gene located immediately 5' of the E. coli lac Z gene. In this arrangement, the tk promoter controls transcription from the bacterial gene in transient expression assays. Additionally, an SV40 polyadenylation signal is present at the 3' end of the lac Z gene to allow for the efficient translation of the mRNA in eucaryotic cells. The expression of beta galactosidase in a transient assay using pON 245^ori- is dependent upon superinfection of the transfected cells with HSV. […] For example, see U.S. application Ser. No. 07/435,491 filed Sep. 5, 1989, the disclosure of which is incorporated herein by reference thereto.
HeLa cells were seeded into 96 well microtiter plates and allowed to grow to 80% confluency (approximately 35,000 cells/well). One half microgram of plasmid pON 245^ori- DNA was introduced into the cells of each well by the […] precipitation technique (Graham and Van der Eb, 1973). Four to six hours later, the cells were rinsed with Hank's Balanced Salt Soluton (HBSS), overlaid with 10% EMEM and incubated at 37° C. At 24 hrs post-trasnfection, cells were rinsed, overlaid with 10% EMEM again and re-incubated at 37° C. At 48 hrs post-transfection, cells were rinsed and overlaid with either EMEM containing 2% fetal calf serum (2% EMEM, 2% EMEM containing HSV-2 (strain MS, Multiplicity of Infection [moi]=5 pfu/cell) or 2% EMEM containing HSV-2 and the appropriate concentration of the compound to be tested. Twenty-four hrs later, the cells were harvested and assayed to beta galactosidase activity as described below.
All determinations of beta galactosidase activity were performed in 96 well microtiter plates. The intracellular level of beta galactosidase activity in each well was determined from cell lysates of the monolayer cultures. Aliquots were assayed by incubation in the presence of beta galactosidase substrate, 4-methylumbelliferyl-β-D-galactoside (MUG, 125 ug/ml, Sigma), for 2 hrs. The generation of fluorescent product was quantified on a Microfluor microfluorimeter (Dynatech) after addition of 0.1M glycine, pH 10.3 (Spaete and Mocarski, 1985). The inhibitory activity of a compound was plotted versus the concentration and an IC50 value (the concentration of compound required to reduce beta glactosidase expression by 50%) was obtained for each compound tested.

[3] = test system: spontaneously hypertensive rats (SHR); assay: SHR analysis: fall in mean blood pressure in conscious spontaneously hypertensive rats; type: in vivo, rat (SHR males); conditions: for SHR MBP: 25 mpk (p.o.), Table IV
Protocol: The ability of the antihypertensive compounds of the present invention to lower blood pressure can be assessed in vivo in conscious spontaneously hypertensive rats (SHR). SHR males are purchased from Taconic Farms, Germantown, N.Y. and are approximately 16-18 weeks old when anesthetized with ether. The caudal (ventral tail) artery is cannulated with polyethylene tubing (PE50) and blood pressure and heart rate are recorded as described by Baum, T. et al, J. Cardiovasc. Pharmacol. Vol. 5, pp. 665-667, (1983). Rats are placed into plastic cylindrical cages where they rapidly recover consciousness. Blood pressure and heart rate are allowed to stabilize for approximately 90 minutes prior to compound administration. Compounds are administered orally as solutions or suspensions in 0.4% aqueous methylcellulose vehicle via a feeding needle. The compound or 0.4% aqueous methylcellulose vehicle are given in a volume of 4 ml/kg to SHRs that had been fasted overnight. Activity is expressed as the fall in mean blood pressure (MBP) in millimeters of mercury (mm Hg). Compound-induced changes are compared with the changes in an appropriate placebo group.

herpes virus [4] = conditions: added to lidocaine or lidocaine hydrochloride; cited from earlier work
herpes virus [5] = conditions: cited from earlier work
HSV-2 = conditions: cited from earlier work
HSV = conditions: cited from earlier work
HSV-1 = conditions: cited from earlier work
[6] = Human alphaherpesvirus 2, HeLa cells, HSV-2 strain MS, moi 5 pfu/cell, 24 hrs, read-out: Anti-HSV Activity, HSV-β-Gal Assay IC50
[7] = Human alphaherpesvirus 2, *Repeat, HeLa cells, HSV-2 strain MS, moi 5 pfu/cell, 24 hrs, read-out: Anti-HSV Activity, HSV-β-Gal Assay IC50 (repeat)

Row | IC50 [1] [µM] | IC50 (HSV-2 (strain MS); [6]) [µg/mL] | SMILES | CC50 [2] [µg/mL] | also measured
1 | 5.9 | 9 (≈ 32.9 µM) | CCCCCCCn1c(OC)cc(=O)c2ccccc21 [Compound 5, 1-Heptyl-2-Methoxy-4(1H)-Quinolinone] | 45 (≈ 165 µM) | 
2 |  | 5 (≈ 17.3 µM) | CCCCCCn1c(OC)cc(=O)c2cccc(OC)c21 [Compound 7, 1-Hexyl-2,8-Dimethoxy-4(1H)-Quinolinone] | 21 (≈ 72.6 µM) | IC50 (HSV-2 (strain MS); [7]): 8 µg/mL (≈ 27.6 µM)
3 | 0.6 |  | CCCCCCn1c(OC)cc(=O)c2cc(C)ccc21 [Compound 16] |  | 
4 |  | 3 (≈ 8.54 µM) | CCOC(=O)c1c(OC)n(Cc2ccccc2)c2ccc(C)cc2c1=O [Compound 9, 1-Benzyl-2-Methoxy-3-Carbethoxy-6-Methyl-4-(1H)-Quinolinone] | 79 (≈ 225 µM) | 
5 | > 100 |  | COc1ccc2c(c1)c(=O)cc(OC)n2Cc1ccccc1 [R H, R1 --CH3, R2 6-OCH3, R3 --CH2 Ph] |  | 
6 | 13 | 18 (≈ 81.7 µM) | COc1cc(=O)c2ccc(OC)c(C)c2o1 [Compound 10, 2,7-Dimethoxy-8-Methyl-1,4-Benzopyrone] | > 100 | 
7 | > 100 |  | COC(=O)Cn1c(OC)cc(=O)c2ccccc21 [R H, R1 --CH3, R2 --, R3 --CH2 CO2 CH3] |  | 
8 |  | 10 (≈ 32.3 µM) | COc1cc(=O)c2cc(C)c(C)cc2n1Cc1ccc(O)cc1 [Compound 11] |  | 
9 | 6 | 13 (≈ 46.5 µM) | COc1cc(=O)c2cc(C)ccc2n1Cc1ccccc1 [Compound 3, 1-Benzyl-2-Methoxy-6-Methyl-4(1H)-Quinolinone] | 85 (≈ 304 µM) | 
10 | > 100 |  | COc1cc(=O)c2ccc(Cl)cc2n1C [R H, R1 --CH3, R2 7-Cl, R3 --CH3] |  | SHR MBP [3]: -7 mm of Hg
11 | 14 |  | CCCCCCn1c(OC)c(C(=O)OCC)c(=O)c2ccccc21 [Compound 17] |  | 

Second part, the molecule before the results:

Row | SMILES | IC50 [1] [µM] | IC50 (HSV-2 (strain MS); [6]) [µg/mL] | CC50 [2] [µg/mL] | also measured
12 | COc1cc(=O)c2cc(OCc3ccccc3)ccc2n1Cc1ccccc1 [R H, R1 --CH3, R2 6-OCH2 Ph, R3 --CH2 Ph] | > 100 |  |  | 
13 | COc1c(Cl)c(=O)c2cc(C)ccc2n1Cc1ccccc1 [Compound 12] |  | 4 (≈ 12.7 µM) | 12 (≈ 38.2 µM) | 
14 | COc1c(I)c(=O)c2ccccc2n1Cc1ccccc1 [Compound 13] |  | 4 (≈ 10.2 µM) | 27 (≈ 69 µM) | 
15 | Cn1c(OCCO)cc(=O)c2ccccc21 [Compound 14] |  | > 25 |  | 
16 | CN(C)CCOc1cc(=O)c2ccccc2n1C [Compound 1, 1-Methyl-2-(2-Dimethylaminoethoxy)-4(1H)-Quinolinone] |  | > 25 |  | 
17 | COc1cc(=O)c2cc(C)c(C)cc2n1Cc1ccc(O[Si](C)(C)C(C)(C)C)cc1 [Compound 8, 1-[4-(t-Butyl-Dimethylsilyloxy)] Benzyl-2-Methoxy-6,7-Dimethyl-4-(1H)-Quinolinone] |  | 2 (≈ 4.72 µM) | 25 (≈ 59 µM) | 
18 | COc1cc(=O)c2cccc(C)c2n1C [Compound 15] |  |  |  | SHR MBP (fall in mean blood pressure) ([3]; 25 mpk (P.O.), Table III): 12 mm of Hg
19 | CC(C)(CO)[C@@H](O)C(=O)NCCC(=O)O [pantothenic acid] |  |  |  | enhancement of antiviral activity on addition to lidocaine or lidocaine hydrochloride (herpes virus [4]): significantly enhances the antiviral activity
20 | CCN(CC)CC(=O)Nc1c(C)cccc1C [lidocaine, 2-(diethylamino)-N-(2,6-dimethylphenyl)acetamide] |  |  |  | treatment of herpes virus infections of mammals (herpes virus [5]): able to treat herpes virus infections of mammals; antiviral agent in cell culture against HSV-2 (HSV-2): antiviral agent; treatment of HSV oral and genital lesions in humans (HSV): particularly effective; antiviral agent in cell culture against HSV-1 (HSV-1): antiviral agent
21 | COc1cc(=O)c2ccccc2n1Cc1ccccc1 [Compound 4, 1-Benzyl-2-Methoxy-4(1H)-Quinolinone] | 2.6 | 20 (≈ 75.4 µM) | 45 (≈ 170 µM) | 
22 | CCCCCCn1c(OC)cc(=O)c2cccc(C)c21 [Compound 6, 1-Hexyl-2-Methoxy-8-Methyl-4(1H)-Quinolinone] | > 100 |  | 27 (≈ 98.8 µM) | SHR MBP [3]: -1 mm of Hg; IC50 (HSV-2 (strain MS); Human alphaherpesvirus 2, HeLa, 24 h, read-out: Anti-HSV Activity, HSV-β-Gal Assay IC50): 3 µg/mL (≈ 11 µM); IC50 (HSV-2 (strain MS); [7]): 6 µg/mL (≈ 21.9 µM)
23 | CC(C)(CO)[C@@H](O)C(=O)NCCCO [dexpanthenol] |  |  |  | enhancement of antiviral activity on addition to lidocaine or lidocaine hydrochloride (herpes virus [4]): significantly enhances the antiviral activity
